The source made the active and inactive calls. No cut-off for these calls is given here.
How the values were obtained:
Histone deacetylase 1 = Histone deacetylase 1 (Homo sapiens, UniProt Q13547); experiment: Induction of HDAC1 degradation in human RS4-11 cells at 0.5 to 10 uM incubated for 12 hrs by Western blotting analysis; assay type: cell-based; details: dose 0.5-10 µM
[1] = target: T1, Protein deacetylase HDAC6 (Homo sapiens) (UniProt Q9UBN7); experiment: Inhibition of HDAC6 in human RS4-11 cells assessed as effect on alpha-tubulin acetylation by Western blot assay; assay type: cell-based
T1 sequence (whole entry): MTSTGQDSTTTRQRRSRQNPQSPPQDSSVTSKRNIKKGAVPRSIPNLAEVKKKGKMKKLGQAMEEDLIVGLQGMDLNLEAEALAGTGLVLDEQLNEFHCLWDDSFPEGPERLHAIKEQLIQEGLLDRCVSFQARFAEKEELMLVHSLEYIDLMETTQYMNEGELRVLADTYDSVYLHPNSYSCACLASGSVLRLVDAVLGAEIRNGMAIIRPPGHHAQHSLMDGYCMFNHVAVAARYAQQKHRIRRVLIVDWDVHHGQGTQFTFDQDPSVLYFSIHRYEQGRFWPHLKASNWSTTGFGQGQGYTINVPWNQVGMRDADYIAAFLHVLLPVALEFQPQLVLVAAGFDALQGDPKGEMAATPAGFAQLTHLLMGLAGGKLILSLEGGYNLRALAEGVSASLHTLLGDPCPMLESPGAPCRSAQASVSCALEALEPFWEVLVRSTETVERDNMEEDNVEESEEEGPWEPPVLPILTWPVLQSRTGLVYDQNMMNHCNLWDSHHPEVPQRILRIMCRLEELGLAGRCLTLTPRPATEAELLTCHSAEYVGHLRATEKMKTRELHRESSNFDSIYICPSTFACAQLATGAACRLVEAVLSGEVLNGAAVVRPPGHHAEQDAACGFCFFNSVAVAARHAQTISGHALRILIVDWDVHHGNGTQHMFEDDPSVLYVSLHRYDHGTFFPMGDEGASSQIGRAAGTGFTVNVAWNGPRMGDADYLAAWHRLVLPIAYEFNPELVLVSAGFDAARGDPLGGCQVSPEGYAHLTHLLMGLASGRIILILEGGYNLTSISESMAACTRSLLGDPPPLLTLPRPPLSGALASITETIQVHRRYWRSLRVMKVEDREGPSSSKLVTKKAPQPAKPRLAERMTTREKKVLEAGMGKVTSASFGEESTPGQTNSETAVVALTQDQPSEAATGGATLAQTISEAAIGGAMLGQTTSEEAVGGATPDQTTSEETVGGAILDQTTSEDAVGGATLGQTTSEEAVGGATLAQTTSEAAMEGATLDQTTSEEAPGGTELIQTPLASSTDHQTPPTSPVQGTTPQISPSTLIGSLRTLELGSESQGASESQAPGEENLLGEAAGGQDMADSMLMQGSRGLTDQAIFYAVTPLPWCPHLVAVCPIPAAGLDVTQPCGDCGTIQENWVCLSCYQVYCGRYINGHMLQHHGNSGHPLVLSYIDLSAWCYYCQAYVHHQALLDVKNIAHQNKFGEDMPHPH

[2] = target: Histone deacetylase (Homo sapiens) (UniProt Q13547+O15379+Q9UBN7+Q92769+Q9UQL6+Q8WUI4+Q9BY41+Q96DB2+P56524+Q9UKV0+Q969S8); experiment: Inhibition of HDAC in human RS4-11 cells assessed as upregulation of histone H3 acetylation by Western blot assay; assay type: cell-based
HeLa = experiment: Antiproliferative activity against human HeLa cells assessed as cell growth inhibition at 5 uM incubated for 48 hrs by CCK-8 assay; assay type: functional, cell-based
HCT-116 = experiment: Antiproliferative activity against human HCT-116 cells assessed as cell growth inhibition at 5 uM incubated for 48 hrs by CCK-8 assay; assay type: functional, cell-based
[3] = target: T1, Protein deacetylase HDAC6 (Homo sapiens); experiment: Induction of HDAC6 degradation in human RS4-11 cells at 0.5 to 10 uM incubated for 12 hrs by Western blotting analysis; assay type: cell-based; details: dose 0.5-10 µM
A549 = experiment: Antiproliferative activity against human A549 cells assessed as cell growth inhibition at 5 uM incubated for 48 hrs by CCK-8 assay; assay type: functional, cell-based
Histone deacetylase 11 = target: T2, Histone deacetylase 11 (Homo sapiens, UniProt Q96DB2); experiment: Inhibition of HDAC11 in human HeLa cells nuclear extract using BocLys(acetyl)-AMC as substrate incubated for 1 hr by fluorescence plate reader analysis; assay type: subcellular, Nucleus
T2 sequence (Q96DB2 whole entry): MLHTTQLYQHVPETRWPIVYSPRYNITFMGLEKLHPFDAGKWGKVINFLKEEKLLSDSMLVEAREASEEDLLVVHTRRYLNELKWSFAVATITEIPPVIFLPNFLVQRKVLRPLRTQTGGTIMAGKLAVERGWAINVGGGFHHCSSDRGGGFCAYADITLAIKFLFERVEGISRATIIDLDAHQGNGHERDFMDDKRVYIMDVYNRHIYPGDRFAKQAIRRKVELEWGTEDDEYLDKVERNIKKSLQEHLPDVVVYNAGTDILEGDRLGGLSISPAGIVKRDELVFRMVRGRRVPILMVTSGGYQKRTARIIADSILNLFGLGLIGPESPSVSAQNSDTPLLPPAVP

Histone deacetylase 4 = Histone deacetylase 4 (Homo sapiens, UniProt P56524); experiment: Inhibition of HDAC4 in human HeLa cells nuclear extract using BocLys(acetyl)-AMC as substrate incubated for 1 hr by fluorescence plate reader analysis; assay type: subcellular, Nucleus
Histone deacetylase 4, sequence (P56524 whole entry): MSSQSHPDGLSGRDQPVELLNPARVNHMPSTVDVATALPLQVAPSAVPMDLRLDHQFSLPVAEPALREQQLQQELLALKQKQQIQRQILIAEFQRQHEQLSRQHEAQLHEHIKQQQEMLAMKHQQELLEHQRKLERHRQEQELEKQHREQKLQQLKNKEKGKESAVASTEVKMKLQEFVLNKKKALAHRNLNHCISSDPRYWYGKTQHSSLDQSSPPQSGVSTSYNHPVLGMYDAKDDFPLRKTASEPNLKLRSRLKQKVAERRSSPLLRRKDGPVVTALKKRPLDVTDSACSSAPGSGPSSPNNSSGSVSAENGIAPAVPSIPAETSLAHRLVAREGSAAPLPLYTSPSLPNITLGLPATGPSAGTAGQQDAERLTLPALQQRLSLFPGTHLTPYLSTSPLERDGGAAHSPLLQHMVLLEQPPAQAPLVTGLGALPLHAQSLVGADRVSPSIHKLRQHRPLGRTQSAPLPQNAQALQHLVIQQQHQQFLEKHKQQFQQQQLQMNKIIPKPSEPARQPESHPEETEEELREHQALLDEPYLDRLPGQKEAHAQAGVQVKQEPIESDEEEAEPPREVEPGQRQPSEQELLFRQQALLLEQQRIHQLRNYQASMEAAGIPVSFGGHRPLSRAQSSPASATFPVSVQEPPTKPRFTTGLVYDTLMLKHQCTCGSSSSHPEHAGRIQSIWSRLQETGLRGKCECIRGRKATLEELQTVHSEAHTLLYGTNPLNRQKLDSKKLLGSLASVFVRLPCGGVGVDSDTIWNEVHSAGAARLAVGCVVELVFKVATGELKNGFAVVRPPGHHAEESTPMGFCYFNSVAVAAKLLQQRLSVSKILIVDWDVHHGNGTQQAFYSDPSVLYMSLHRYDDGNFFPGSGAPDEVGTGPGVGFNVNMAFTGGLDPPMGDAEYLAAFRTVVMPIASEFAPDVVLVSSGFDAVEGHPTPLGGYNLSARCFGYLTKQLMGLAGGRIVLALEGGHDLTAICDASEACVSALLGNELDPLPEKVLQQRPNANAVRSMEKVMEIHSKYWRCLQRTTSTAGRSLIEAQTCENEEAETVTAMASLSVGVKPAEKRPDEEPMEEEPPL

Histone deacetylase 9 = Histone deacetylase 9 (Homo sapiens, UniProt Q9UKV0); experiment: Inhibition of HDAC9 in human HeLa cells nuclear extract using BocLys(acetyl)-AMC as substrate incubated for 1 hr by fluorescence plate reader analysis; assay type: subcellular, Nucleus
Histone deacetylase 9, sequence (Q9UKV0 whole entry): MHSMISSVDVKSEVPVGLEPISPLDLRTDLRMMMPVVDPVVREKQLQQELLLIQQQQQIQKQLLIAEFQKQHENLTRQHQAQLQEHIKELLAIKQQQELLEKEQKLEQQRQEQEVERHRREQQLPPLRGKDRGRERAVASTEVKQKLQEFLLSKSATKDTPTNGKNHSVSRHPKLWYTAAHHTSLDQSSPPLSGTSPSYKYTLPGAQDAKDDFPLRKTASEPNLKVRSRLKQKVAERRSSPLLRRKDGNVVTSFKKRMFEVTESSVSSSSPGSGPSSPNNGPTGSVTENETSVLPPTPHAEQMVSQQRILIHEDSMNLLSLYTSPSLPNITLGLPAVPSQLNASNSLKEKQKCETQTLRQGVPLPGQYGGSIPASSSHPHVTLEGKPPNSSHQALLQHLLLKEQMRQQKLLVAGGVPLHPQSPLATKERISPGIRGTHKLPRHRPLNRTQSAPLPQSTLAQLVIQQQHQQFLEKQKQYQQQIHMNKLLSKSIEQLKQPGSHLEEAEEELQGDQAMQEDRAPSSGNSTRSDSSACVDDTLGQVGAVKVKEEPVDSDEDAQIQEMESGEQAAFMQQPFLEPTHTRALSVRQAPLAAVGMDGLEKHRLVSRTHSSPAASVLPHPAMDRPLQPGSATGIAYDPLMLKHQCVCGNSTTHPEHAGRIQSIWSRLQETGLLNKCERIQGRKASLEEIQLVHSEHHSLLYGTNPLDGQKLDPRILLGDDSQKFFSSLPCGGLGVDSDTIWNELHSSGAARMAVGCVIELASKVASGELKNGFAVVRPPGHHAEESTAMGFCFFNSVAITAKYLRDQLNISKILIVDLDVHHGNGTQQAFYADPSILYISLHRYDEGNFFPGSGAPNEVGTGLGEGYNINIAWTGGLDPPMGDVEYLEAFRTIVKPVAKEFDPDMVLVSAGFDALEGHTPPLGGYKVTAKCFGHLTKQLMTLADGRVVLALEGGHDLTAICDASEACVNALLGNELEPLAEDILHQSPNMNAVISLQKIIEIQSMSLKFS

K562 = experiment: Antiproliferative activity against human K562 cells assessed as cell growth inhibition incubated for 48 hrs by CCK-8 assay; assay type: functional, cell-based; details: K562, 48 h
Histone deacetylase 2 = Histone deacetylase 2 (Homo sapiens, UniProt Q92769); experiment: Inhibition of HDAC2 in human HeLa cells nuclear extract using BocLys(acetyl)-AMC as substrate incubated for 1 hr by fluorescence plate reader analysis; assay type: subcellular, Nucleus
Histone deacetylase 2, sequence (Q92769 whole entry): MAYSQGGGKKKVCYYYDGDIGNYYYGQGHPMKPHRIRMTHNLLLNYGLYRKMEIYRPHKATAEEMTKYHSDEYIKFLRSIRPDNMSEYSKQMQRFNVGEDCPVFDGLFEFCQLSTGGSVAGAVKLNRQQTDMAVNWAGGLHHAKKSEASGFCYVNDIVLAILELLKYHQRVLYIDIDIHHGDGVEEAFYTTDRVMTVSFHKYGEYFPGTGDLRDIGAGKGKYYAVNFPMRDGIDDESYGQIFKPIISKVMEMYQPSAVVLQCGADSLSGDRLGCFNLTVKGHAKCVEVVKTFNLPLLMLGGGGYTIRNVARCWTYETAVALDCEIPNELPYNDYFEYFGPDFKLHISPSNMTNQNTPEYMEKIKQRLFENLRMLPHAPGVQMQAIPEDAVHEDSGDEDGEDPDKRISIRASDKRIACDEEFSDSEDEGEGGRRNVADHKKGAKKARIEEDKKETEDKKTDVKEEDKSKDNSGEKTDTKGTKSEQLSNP

U-266 = experiment: Antiproliferative activity against human U-266 cells assessed as cell growth inhibition incubated for 48 hrs by CCK-8 assay; assay type: functional, cell-based; details: U-266, 48 h
RPMI-8226 = experiment: Antiproliferative activity against human RPMI-8226 cells assessed as cell growth inhibition incubated for 48 hrs by CCK-8 assay; assay type: functional, cell-based; details: RPMI-8226, 48 h
RS4-11 = experiment: Antiproliferative activity against human RS4-11 cells assessed as cell growth inhibition incubated for 48 hrs by CCK-8 assay; assay type: functional, cell-based; details: RS4-11, 48 h
Histone deacetylase 7 = target: T3, Histone deacetylase 7 (Homo sapiens, UniProt Q8WUI4); experiment: Inhibition of HDAC7 in human HeLa cells nuclear extract using BocLys(acetyl)-AMC as substrate incubated for 1 hr by fluorescence plate reader analysis; assay type: subcellular, Nucleus
T3 sequence (Q8WUI4 whole entry): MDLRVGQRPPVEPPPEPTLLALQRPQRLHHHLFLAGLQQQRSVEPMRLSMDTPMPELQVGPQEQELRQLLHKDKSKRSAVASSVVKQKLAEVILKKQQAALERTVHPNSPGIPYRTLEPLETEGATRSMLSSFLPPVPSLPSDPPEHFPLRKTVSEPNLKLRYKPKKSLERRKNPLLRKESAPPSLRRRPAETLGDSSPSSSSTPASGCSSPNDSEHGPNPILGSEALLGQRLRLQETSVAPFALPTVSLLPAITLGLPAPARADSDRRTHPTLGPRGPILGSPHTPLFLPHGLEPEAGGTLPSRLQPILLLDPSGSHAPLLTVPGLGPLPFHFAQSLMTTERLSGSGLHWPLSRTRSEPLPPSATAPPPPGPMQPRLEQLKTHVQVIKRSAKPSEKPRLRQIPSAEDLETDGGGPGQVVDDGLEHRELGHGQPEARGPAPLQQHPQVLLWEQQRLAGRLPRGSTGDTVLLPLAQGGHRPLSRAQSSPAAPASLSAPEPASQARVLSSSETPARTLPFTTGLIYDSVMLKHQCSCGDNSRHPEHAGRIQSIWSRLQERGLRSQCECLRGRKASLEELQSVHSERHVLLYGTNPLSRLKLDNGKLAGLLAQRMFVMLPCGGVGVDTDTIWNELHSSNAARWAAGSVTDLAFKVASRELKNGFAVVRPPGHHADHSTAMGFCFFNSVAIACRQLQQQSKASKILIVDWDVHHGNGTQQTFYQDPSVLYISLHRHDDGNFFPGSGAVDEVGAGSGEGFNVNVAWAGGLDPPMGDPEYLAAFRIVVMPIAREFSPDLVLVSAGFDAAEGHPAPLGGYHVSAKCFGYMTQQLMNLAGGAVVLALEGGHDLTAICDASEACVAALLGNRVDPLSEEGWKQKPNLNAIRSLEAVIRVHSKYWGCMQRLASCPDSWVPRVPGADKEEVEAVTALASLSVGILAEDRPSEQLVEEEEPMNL

Histone deacetylase 1, sequence (Q13547 whole entry): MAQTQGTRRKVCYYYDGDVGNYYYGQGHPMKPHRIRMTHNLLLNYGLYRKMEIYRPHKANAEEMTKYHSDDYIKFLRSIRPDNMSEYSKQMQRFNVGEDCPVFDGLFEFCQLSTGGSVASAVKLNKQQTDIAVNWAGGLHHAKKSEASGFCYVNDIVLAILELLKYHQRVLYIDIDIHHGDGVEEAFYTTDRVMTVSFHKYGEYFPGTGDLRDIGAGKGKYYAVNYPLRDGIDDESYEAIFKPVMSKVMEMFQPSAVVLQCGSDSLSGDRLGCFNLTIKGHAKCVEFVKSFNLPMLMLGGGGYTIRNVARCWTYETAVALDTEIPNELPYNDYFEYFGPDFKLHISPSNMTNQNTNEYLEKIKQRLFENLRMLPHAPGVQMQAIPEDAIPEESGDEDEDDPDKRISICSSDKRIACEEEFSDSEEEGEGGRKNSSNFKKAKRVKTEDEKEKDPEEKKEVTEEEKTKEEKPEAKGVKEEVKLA

Row | Compound | Activity (Histone deacetylase 1) | Activity [1] | inhibition [2] | Activity (HeLa) | Activity (HCT-116) | Activity [3] | Activity (A549) | IC50 (Histone deacetylase 11) [nM] | IC50 (Histone deacetylase 4) [nM] | IC50 (Histone deacetylase 9) [nM] | IC50 (K562) [nM] | IC50 (Histone deacetylase 2) [nM] | IC50 (U-266) [nM] | IC50 (RPMI-8226) [nM] | IC50 (RS4-11) [nM] | IC50 (Histone deacetylase 7) [nM]
1 | O=C(CCCCCCNc1cccc2c1C(=O)N(C1CCC(=O)NC1=O)C2=O)NO (stereo unspecified) | inactive | inactive | Active | inactive | inactive | inactive | inactive |  |  |  |  |  |  |  |  | 
2 | Nc1ccc(F)cc1NC(=O)c1ccc(CNC(=O)/C=C/c2cccnc2)cc1 | inactive |  |  | inactive | inactive | inactive | inactive | > 2000 | > 2000 | > 2000 | 21300 | 478 | 4810 | 4190 | 810 | > 2000
3 | Nc1cccc2c1C(=O)N(C1CCC(=O)NC1=O)C2=O (stereo unspecified) | inactive |  |  | inactive | inactive | inactive | inactive |  |  |  |  |  |  |  |  | 
4 | O=C(CCCCCCCNc1cccc2c1C(=O)N(C1CCC(=O)NC1=O)C2=O)NCCS (stereo unspecified) | inactive |  |  | inactive | inactive | inactive | inactive |  |  |  |  |  |  |  |  | 
5 | O=C(CCCNc1cccc2c1C(=O)N(C1CCC(=O)NC1=O)C2=O)NCCS (stereo unspecified) | inactive |  |  | inactive | inactive | inactive | inactive |  |  |  |  |  |  |  |  | 
6 | O=C(CCCCCCCNc1cccc2c1C(=O)N(C1CCC(=O)NC1=O)C2=O)NO (stereo unspecified) | inactive |  |  | inactive | inactive | inactive | inactive |  |  |  |  |  |  |  |  | 
7 | O=C(CCCNc1cccc2c1C(=O)N(C1CCC(=O)NC1=O)C2=O)NO (stereo unspecified) | inactive |  |  | inactive | inactive | inactive | inactive |  |  |  |  |  |  |  |  | 
8 | Nc1cc(F)ccc1NC(=O)CCCCCCNc1cccc2c1C(=O)N(C1CCC(=O)NC1=O)C2=O (stereo unspecified) | inactive |  |  | inactive | inactive | inactive | inactive |  |  |  |  |  |  |  |  | 
9 | Nc1ccccc1NC(=O)CCCNc1cccc2c1C(=O)N(C1CCC(=O)NC1=O)C2=O (stereo unspecified) | inactive |  |  | inactive | inactive | inactive | inactive |  |  |  |  |  |  |  |  | 

Reference: ChEMBL document CHEMBL5532657, “Serendipitous discovery of Class I HDAC inhibitors from rational design of molecular glue degraders targeting HDAC” (Eur J Med Chem, 2024)
